Usually Ki stands for the dissociation constant of the complex between target and ligand, obtained from inhibition or displacement. Read a low Ki as tighter binding. By melting point is commonly meant the temperature of the solid-liquid transition.

T1 sequence (P25103 whole entry): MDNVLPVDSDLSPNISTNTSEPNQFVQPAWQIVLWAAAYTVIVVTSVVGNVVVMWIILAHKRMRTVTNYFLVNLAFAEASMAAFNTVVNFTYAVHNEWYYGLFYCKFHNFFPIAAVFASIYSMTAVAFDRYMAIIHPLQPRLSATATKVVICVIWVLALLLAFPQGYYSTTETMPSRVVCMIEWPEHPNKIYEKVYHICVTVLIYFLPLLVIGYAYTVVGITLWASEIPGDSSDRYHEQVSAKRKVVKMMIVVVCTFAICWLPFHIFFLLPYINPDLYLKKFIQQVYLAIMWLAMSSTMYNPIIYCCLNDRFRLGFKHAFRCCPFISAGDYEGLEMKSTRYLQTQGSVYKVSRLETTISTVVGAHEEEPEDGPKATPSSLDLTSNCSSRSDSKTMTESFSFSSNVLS

The first data set concerns the target T1, human NK1 receptor (Homo sapiens, UniProt P25103).
T1 construct: expressed in transfected cells; host or cells: CHO cells infected using the Semliki virus expression system; membrane suspension
Briefly: NK1 receptor binding assay, [3H]substance P displacement. To be noted: affinity to the NK-1 receptor; human NK1 receptors in CHO cells; [3H]substance P 0.6 nM. How it is done:
The affinity of test compounds for the NK1 receptor was evaluated at human NK1 receptors in CHO cells infected with the human NK1 receptor (using the Semliki virus expression system) and radiolabelled with [^3H]substance P (final concentration 0.6 nM). Binding assays were performed in HEPES buffer (50 mM, pH 7.4) containing BSA (0.04%) leupeptin (8 μg/ml), MnCI2 (3 mM) and phosphoramidon (2 μM). Binding assays consisted of 250 μl of membrane suspension (1.25×10^5 cells/assay tube), […] of buffer of displacing agent and 125 μl of [^3H]substance P. Displacement curves were determined with at least seven concentrations of the compound. The assay tubes were incubated for 60 min at room temperature after which time the tube contents were rapidly filtered under vacuum through GF/C filters presoaked for 60 min with PEI (0.3%) with 2×2 ml washes of HEPES buffer (50 mM, pH 7.4). The radioactivity retained on the filters was measured by scintillation counting. All assays were performed in triplicate in at least 2 separate experiments.
Turning to `Cc1ccccc1-c1cc(NC(=O)C2CC2)ncc1N(C)C(=O)C(C)(C)c1cc(C(F)(F)F)cc(C(F)(F)F)c1` [Example 12, Cyclopropanecarboxylic acid (5-{[2-(3,5-bis-trifluoromethyl-phenyl)-2-methyl-propionyl]-methyl-amino}-4-o-tolyl-pyridin-2-yl)-amide], the Ki was 2.24 nM.
The same measure, in the same setting: as for `Cc1ccccc1-c1cc(-n2cncn2)ncc1C(=O)N(C)Cc1cc(C(F)(F)F)cc(C(F)(F)F)c1` [Example 1, N-(3,5-Bis-trifluoromethyl-benzyl)-N-methyl-4-o-tolyl-6-[1,2,4]triazol-1-yl-nicotinamide], the figure is 3.98 nM.
Still for that read-out and setting: as for `Cc1ccccc1-c1cc(N(C)C(=O)C2CC2)ncc1N(C)C(=O)C(C)(C)c1cc(C(F)(F)F)cc(C(F)(F)F)c1` [Example 13, Cyclopropanecarboxylic acid (5-{[2-(3,5-bis-trifluoromethyl-phenyl)-2-methyl-propionyl]-methyl-amino}-4-o-tolyl-pyridin-2-yl)-methyl-amide], the figure is 1.35 nM; as for `CC(=O)Nc1cc(-c2ccccc2C)c(N(C)C(=O)C(C)(C)c2cc(C(F)(F)F)cc(C(F)(F)F)c2)cn1` [Example 10, N-(6-Acetylamino-4-o-tolyl-pyridin-3-yl)-2-(3,5-bis-trifluoromethyl-phenyl)-N-methyl-isobutyramide], 2.51 nM; as for `Cc1ccccc1-c1cc(N2CC[C@@H](O)C2)ncc1C(=O)N(C)Cc1cc(C(F)(F)F)cc(C(F)(F)F)c1` [Example 5, (R)-N-(3,5-Bis-trifluoromethyl-benzyl)-6-(3-hydroxy-pyrrolidin-1-yl)-N -methyl-4-o-tolyl-nicotinamide], 0.575 nM.
Same read-out and setting: to `CN(C(=O)C(C)(C)c1cc(C(F)(F)F)cc(C(F)(F)F)c1)c1cnc(NCCO)cc1-c1ccccc1Cl` [Example 8, 2-(3,5-Bis-trifluofomethyl-phenyl)-N-[4-(2-chloro-phenyl)-6-(2-hydroxy-ethylamino)-pyridin-3-yl]-N-methyl-isobutyramide] belongs 0.724 nM; to `CN(Cc1cc(C(F)(F)F)cc(C(F)(F)F)c1)C(=O)c1cnc(N2CCC(O)CC2)cc1-c1ccccc1Cl` [Example 6, 4′-(2-Chloro-phenyl)-4-hydroxy-3,4,5,6-tetrahydro-2H-[1,2′]bipyridinyl-5′-carboxylic acid (3,5-bis-trifluoromethyl-benzyl)-methyl-amide], 0.661 nM; to `Cc1ccccc1-c1cc(NCCO)ncc1C(=O)N(C)Cc1cc(C(F)(F)F)cc(C(F)(F)F)c1` [Example 2, N-(3,5-Bis-trifluoromethyl-benzyl)-6-(2-hydroxy-ethylamino)-N-methyl-4-o-tolyl-nicotinamide], 1.35 nM.
On to `CC(=O)N(C)c1cc(-c2ccccc2C)c(N(C)C(=O)C(C)(C)c2cc(C(F)(F)F)cc(C(F)(F)F)c2)cn1` [Example 11, N-[6-(Acetyl-methyl-amino)-4-o-tolyl-pyridin-3-yl]-2-(3,5-bis-trifluoromethyl-phenyl)-N-methyl-isobutyramide], for which the inhibitory constant (Ki) was 1.95 nM.
On the same count and under the same terms, as for `Cc1ccccc1-c1cc(-n2ccnc2)ncc1N(C)C(=O)C(C)(C)c1cc(C(F)(F)F)cc(C(F)(F)F)c1` [Example 14, 2-(3,5-Bis-trifluoromethyl-phenyl)-N-(6-imidazol-1-yl-4-o-tolyl-pyridin-3-yl)-N-methyl-isobutyramide], the figure is 2.24 nM; as for `Cc1ccccc1-c1cc(NCCO)ncc1N(C)C(=O)C(C)(C)c1cc(C(F)(F)F)cc(C(F)(F)F)c1` [Example 7, 2-(3,5-Bis-trifluoromethyl-phenyl)-N-[6-(2-hydroxy-ethylamino)-4-o-toyl-pyridin-3-yl]-N-methyl-isobutyramide], 0.692 nM; as for `Cc1ccccc1-c1cc(N2CCC(OCCO)CC2)ncc1C(=O)N(C)Cc1cc(C(F)(F)F)cc(C(F)(F)F)c1` [Example 4, 4-(2-Hydroxy-ethoxy)-4′-o-tolyl-3,4,5,6-tetrahydro-2H-[1,2′]bipyridinyl-5′-carboxylic acid (3,5-bis-trifluoromethyl-benzyl)-methyl-amide], 0.933 nM.
The compound `Cc1ccccc1-c1cc(N2C=COCC2)ncc1N(C)C(=O)C(C)(C)c1cc(C(F)(F)F)cc(C(F)(F)F)c1` [Example 9, 2-(3,5-Bis-trifluoromethyl-phenyl)-N-[6-(2,3-dihydro-[1,4]oxazin-4-yl)-4-o-tolyl-pyridin-3-yl]-N-methyl-isobutyramide] showed a Ki of 1.48 nM.
Still for that read-out and setting: to `Cc1ccccc1-c1cc(N2CCC(O)CC2)ncc1C(=O)N(C)Cc1cc(C(F)(F)F)cc(C(F)(F)F)c1` [Example 3, 4-Hydroxy-4′-o-tolyl-3,4,5,6-tetrahydro-2H-[1,2′]bipyridinyl-5′-carboxylic acid (3,5-bis-trifluoromethyl-benzyl)-methyl-amide] belongs 1.23 nM.

Tested on in the next data set: not given
Experiment: not given
Details: not given
The compound `Cc1ccccc1-c1cc(-n2cncn2)ncc1C(=O)N(C)Cc1cc(C(F)(F)F)cc(C(F)(F)F)c1` [Example 1, N-(3,5-Bis-trifluoromethyl-benzyl)-N-methyl-4-o-tolyl-6-[1,2,4]triazol-1-yl-nicotinamide] displayed a melting point of 91 to 93 °C.
Compound `Cc1ccccc1-c1cc(N2CCC(O)CC2)ncc1C(=O)N(C)Cc1cc(C(F)(F)F)cc(C(F)(F)F)c1` [Example 3, 4-Hydroxy-4′-o-tolyl-3,4,5,6-tetrahydro-2H-[1,2′]bipyridinyl-5′-carboxylic acid (3,5-bis-trifluoromethyl-benzyl)-methyl-amide] gave a melting point of 150 to 152 °C.

The record behind these values is US6624176B2, “Heteroaromatic substituted amides with antagonistic activity to neurokinin 1 receptors” (Hoffmann-La Roche Inc., priority 2001, dated 2003).
